35 molecules from patent publication US10562887B2, “Triazolones and tetrazolones as inhibitors of ROCK” (BRISTOL-MYERS SQUIBB COMPANY, priority 2016, dated 2020) can be followed below.

Each structure is given as a SMILES string.

ROCK2, sequence (O75116 whole entry, species assumed): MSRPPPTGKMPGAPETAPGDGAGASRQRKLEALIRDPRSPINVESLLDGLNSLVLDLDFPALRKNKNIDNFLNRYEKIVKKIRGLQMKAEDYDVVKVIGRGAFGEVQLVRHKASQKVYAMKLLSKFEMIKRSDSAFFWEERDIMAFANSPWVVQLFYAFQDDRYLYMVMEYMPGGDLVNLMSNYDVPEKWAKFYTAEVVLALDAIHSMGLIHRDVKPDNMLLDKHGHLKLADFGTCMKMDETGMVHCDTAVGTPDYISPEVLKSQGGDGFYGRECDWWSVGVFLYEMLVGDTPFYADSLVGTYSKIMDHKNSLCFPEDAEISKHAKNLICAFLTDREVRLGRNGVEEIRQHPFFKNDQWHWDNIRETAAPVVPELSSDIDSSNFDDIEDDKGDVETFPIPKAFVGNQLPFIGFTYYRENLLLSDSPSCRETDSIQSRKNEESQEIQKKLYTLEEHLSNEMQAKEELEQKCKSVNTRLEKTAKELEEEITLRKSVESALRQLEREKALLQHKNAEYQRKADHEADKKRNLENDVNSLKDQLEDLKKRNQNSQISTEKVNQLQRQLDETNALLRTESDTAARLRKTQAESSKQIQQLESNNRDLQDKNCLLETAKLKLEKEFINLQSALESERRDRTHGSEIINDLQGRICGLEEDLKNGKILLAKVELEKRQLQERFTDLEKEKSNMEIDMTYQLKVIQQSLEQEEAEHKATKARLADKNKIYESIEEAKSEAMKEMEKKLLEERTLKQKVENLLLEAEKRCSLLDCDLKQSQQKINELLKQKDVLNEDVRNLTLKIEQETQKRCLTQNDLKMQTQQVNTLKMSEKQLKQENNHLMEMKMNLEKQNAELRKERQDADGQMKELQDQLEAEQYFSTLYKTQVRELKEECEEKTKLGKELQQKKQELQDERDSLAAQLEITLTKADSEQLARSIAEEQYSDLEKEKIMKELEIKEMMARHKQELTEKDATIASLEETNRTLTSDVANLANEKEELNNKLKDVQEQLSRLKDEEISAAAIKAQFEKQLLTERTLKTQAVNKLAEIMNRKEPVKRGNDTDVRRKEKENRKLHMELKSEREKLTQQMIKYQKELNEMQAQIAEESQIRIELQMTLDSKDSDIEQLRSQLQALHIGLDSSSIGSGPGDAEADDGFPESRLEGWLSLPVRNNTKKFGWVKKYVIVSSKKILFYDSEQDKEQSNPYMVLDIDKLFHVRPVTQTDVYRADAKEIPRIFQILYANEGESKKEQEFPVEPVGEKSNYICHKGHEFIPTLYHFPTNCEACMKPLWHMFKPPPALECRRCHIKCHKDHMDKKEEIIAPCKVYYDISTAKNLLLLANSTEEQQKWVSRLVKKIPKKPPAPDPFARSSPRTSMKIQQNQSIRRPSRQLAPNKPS

The experiment concerns the target ROCK2 (Homo sapiens (Human), UniProt O75116). The experiment can be described thus: ROCK2 assay (peptide phosphorylation, LABCHIP 3000 Reader). Particulars: 5 μM ATP, 1.5 μM peptide substrate. In kind it is biochemical. How it is done:
The effectiveness of compounds of the present invention as ROCK inhibitors can be determined in a 30 μL, assay containing 20 mM HEPES, pH 7.5, 20 mM MgCl2, 0.015% Brij-35, 4 mM DTT, 5 μM ATP and 1.5 μM peptide substrate (FITC-AHA-AKRRRLSSLRA-OH). Compounds were dissolved in DMSO so that the final concentration of DMSO was <2%, and the reaction was initiated with Rho kinase variants. After incubation, the reaction was terminated by the addition of EDTA and the phosphorylated and non-phosphorylated peptides separated using a LABCHIP® 3000 Reader (Caliper Life Sciences). […] Compounds were tested in dose-response format, and the inhibition of kinase activity was calculated at each concentration of compound. The inhibition data were fit using a curve-fitting program to determine the IC50; i.e., the concentration of compound required to inhibit 50% of kinase activity.
Representative Examples were tested in the ROCK2 assay described above and found having ROCK2 inhibitory activity.
Usually IC50 stands for the concentration that gives 50% inhibition. Lower therefore signals greater potency. With `COc1cccc(Cn2nc(C)n(-c3ccc(-c4cn[nH]c4)cc3)c2=O)c1` [Example 69, 4-(4-(1H-pyrazol-4-yl)phenyl)-1-(3-methoxybenzyl)-3-methyl-1H-1,2,4-triazol-5(4H)-one], the concentration for half-maximal inhibition (IC50) lay within 250 to 2000 nM.

With `Cc1nn(Cc2cccc(F)c2)c(=O)n1-c1ccc(-c2cn[nH]c2)cc1` [Example 70, 4-(4-(1H-pyrazol-4-yl)phenyl)-1-(3-fluorobenzyl)-3-methyl-1H-1,2,4-triazol-5(4H)-one], the IC50 is 250 to 2000 nM.

`Cc1nn(Cc2cc(F)ccc2F)c(=O)n1-c1ccc(-c2cn[nH]c2)cc1` [Example 71, 4-(4-(1H-pyrazol-4-yl)phenyl)-1-(2,5-difluorobenzyl)-3-methyl-1H-1,2,4-triazol-5(4H)-one] yielded an IC50 of 250 to 2000 nM.

On to `COc1cc(F)cc(Cn2nc(C)n(-c3ccc(-c4cn[nH]c4)cc3)c2=O)c1` [Example 72, 4-(4-(1H-pyrazol-4-yl)phenyl)-1-(3-fluoro-5-methoxybenzyl)-3-methyl-1H-1,2,4-triazol-5(4H)-one], for which the IC50 lay in the range of 250 to 2000 nM.

Regarding `Cc1nn(C(C)c2ccccc2)c(=O)n1-c1ccc(-c2cn[nH]c2)cc1` (centres unmarked) [Example 73, 4-(4-(1H-pyrazol-4-yl)phenyl)-3-methyl-1-(1-phenylethyl)-1H-1,2,4-triazol-5(4H)-one], the IC50 was 250 to 2000 nM.

With `COc1cc(-c2cn[nH]c2)ccc1-n1c(C)nn(Cc2cccc(F)c2)c1=O` [Example 74, 1-(3-fluorobenzyl)-4-(2-methoxy-4-(1H-pyrazol-4-yl)phenyl)-3-methyl-1H-1,2,4-triazol-5(4H)-one], the IC50 lay within 250 to 2000 nM.

With `COc1cc(-c2cn[nH]c2)ccc1-n1c(C)nn(C(C)c2ccccc2)c1=O` (centres unmarked) [Example 75, 4-(2-methoxy-4-(1H-pyrazol-4-yl)phenyl)-3-methyl-1-(1-phenylethyl)-1H-1,2,4-triazol-5(4H)-one], the concentration for half-maximal inhibition (IC50) fell in the range of 250 to 2000 nM.

Turning to `COc1cc(F)cc(Cn2nc(C)n(-c3ccc(-c4cn[nH]c4)cc3OC)c2=O)c1` [Example 76, 1-(3-fluoro-5-methoxybenzyl)-4-(2-methoxy-4-(1H-pyrazol-4-yl)phenyl)-3-methyl-1H-1,2,4-triazol-5(4H)-one], the IC50 is 250 to 2000 nM.

`COc1cc(-c2cn[nH]c2)ccc1-n1c(C)nn(CCc2ccccc2)c1=O` [Example 77, 4-(2-methoxy-4-(1H-pyrazol-4-yl)phenyl)-3-methyl-1-phenethyl-1H-1,2,4-triazol-5(4H)-one] returned an IC50 of 250 to 2000 nM.

As for `COc1cc(-c2cn[nH]c2)ccc1-n1c(C)nn(Cc2cc(F)ccc2F)c1=O` [Example 78, 1-(2,5-difluorobenzyl)-4-(2-methoxy-4-(1H-pyrazol-4-yl)phenyl)-3-methyl-1H-1,2,4-triazol-5(4H)-one], the half-maximal inhibitory concentration (IC50) lay within 50 to 250 nM.

In turn, `Cc1nn(-c2ccc(-c3cn[nH]c3)cc2)c(=O)n1Cc1ccccc1` [Example 79, 1-(4-(1H-pyrazol-4-yl)phenyl)-4-benzyl-3-methyl-1H-1,2,4-triazol-5(4H)-one] yielded an IC50 of 5 to 50 nM.

With `COc1cccc(Cn2c(C)nn(-c3ccc(-c4cn[nH]c4)cc3)c2=O)c1` [Example 80, 1-(4-(1H-pyrazol-4-yl)phenyl)-4-(3-methoxybenzyl)-3-methyl-1H-1,2,4-triazol-5(4H)-one], the IC50 is less than 5 nM.

For the molecule `Cc1nn(-c2ccc(-c3cn[nH]c3)cc2)c(=O)n1Cc1cccc(F)c1` [Example 81, 1-(4-(1H-pyrazol-4-yl)phenyl)-4-(3-fluorobenzyl)-3-methyl-1H-1,2,4-triazol-5(4H)-one], the IC50 fell in the range of 5 to 50 nM.

Regarding `Cc1nn(-c2ccc(-c3cn[nH]c3)cc2)c(=O)n1Cc1cc(F)ccc1F` [Example 82, 1-(4-(1H-pyrazol-4-yl)phenyl)-4-(2,5-difluorobenzyl)-3-methyl-1H-1,2,4-triazol-5(4H)-one], the IC50 was 5 to 50 nM.

Take `COc1cc(F)cc(Cn2c(C)nn(-c3ccc(-c4cn[nH]c4)cc3)c2=O)c1` [Example 83, 1-(4-(1H-pyrazol-4-yl)phenyl)-4-(3-fluoro-5-methoxybenzyl)-3-methyl-1H-1,2,4-triazol-5(4H)-one]: the IC50 was less than 5 nM.

In turn, `Cc1nn(-c2ccc(-c3cn[nH]c3)cc2)c(=O)n1C(C)c1ccccc1` (centres unmarked) [Example 84, 1-(4-(1H-pyrazol-4-yl)phenyl)-3-methyl-4-(1-phenylethyl)-1H-1,2,4-triazol-5(4H)-one] gave a half-inhibitory concentration (IC50) of 50 to 250 nM.

Take `Cc1nn(-c2ccc(-c3cn[nH]c3)cc2)c(=O)n1CCc1ccccc1` [Example 85, 1-(4-(1H-pyrazol-4-yl)phenyl)-3-methyl-4-phenethyl-1H-1,2,4-triazol-5(4H)-one]: the IC50 lay within 50 to 250 nM.

Molecule `Cc1nn(-c2ccc(-c3cn[nH]c3)cc2)c(=O)n1Cc1ccccc1Cl` [Example 86, 1-(4-(1H-pyrazol-4-yl)phenyl)-4-(2-chlorobenzyl)-3-methyl-1H-1,2,4-triazol-5(4H)-one] returned an IC50 of 5 to 50 nM.

Regarding `Cc1nn(-c2ccc(-c3cn[nH]c3)cc2)c(=O)n1Cc1ccccc1F` [Example 87, 2-(4-(1H-pyrazol-4-yl)phenyl)-4-(2-fluorobenzyl)-5-methyl-2,4-dihydro-3H-1,2,4-triazol-3-one], the IC50 was 5 to 50 nM.

In turn, `COc1cc(-n2nc(C)n(Cc3ccccc3)c2=O)ccc1-c1cn[nH]c1` [Example 88, 4-benzyl-1-(3-methoxy-4-(1H-pyrazol-4-yl)phenyl)-3-methyl-1H-1,2,4-triazol-5(4H)-one] came in with an IC50 of less than 5 nM.

In turn, `COc1cccc(Cn2c(C)nn(-c3ccc(-c4cn[nH]c4)c(OC)c3)c2=O)c1` [Example 89, 1-(3-methoxy-4-(1H-pyrazol-4-yl)phenyl)-4-(3-methoxybenzyl)-3-methyl-1H-1,2,4-triazol-5(4H)-one] registered a concentration for half-maximal inhibition (IC50) of less than 5 nM.

`COc1cc(-n2nc(C)n(Cc3cccc(F)c3)c2=O)ccc1-c1cn[nH]c1` [Example 90, 4-(3-fluorobenzyl)-1-(3-methoxy-4-(1H-pyrazol-4-yl)phenyl)-3-methyl-1H-1,2,4-triazol-5(4H)-one] yielded an IC50 of less than 5 nM.

On to `COc1cc(-n2nc(C)n(Cc3cc(F)ccc3F)c2=O)ccc1-c1cn[nH]c1` [Example 91, 4-(2,5-difluorobenzyl)-1-(3-methoxy-4-(1H-pyrazol-4-yl)phenyl)-3-methyl-1H-1,2,4-triazol-5(4H)-one], for which the IC50 fell in the range of 5 to 50 nM.

Take `COc1cc(F)cc(Cn2c(C)nn(-c3ccc(-c4cn[nH]c4)c(OC)c3)c2=O)c1` [Example 92, 4-(3-fluoro-5-methoxybenzyl)-1-(3-methoxy-4-(1H-pyrazol-4-yl)phenyl)-3-methyl-1H-1,2,4-triazol-5(4H)-one]: the half-inhibitory concentration (IC50) was less than 5 nM.

In the case of `COc1cc(-n2nc(C)n(C(C)c3ccccc3)c2=O)ccc1-c1cn[nH]c1` (centres unmarked) [Example 93, 1-(3-methoxy-4-(1H-pyrazol-4-yl)phenyl)-3-methyl-4-(1-phenylethyl)-1H-1,2,4-triazol-5(4H)-one], the half-maximal inhibitory concentration (IC50) lay in the range of 5 to 50 nM.

Regarding `COc1cc(-n2nc(C)n(CCc3ccccc3)c2=O)ccc1-c1cn[nH]c1` [Example 94, 1-(3-methoxy-4-(1H-pyrazol-4-yl)phenyl)-3-methyl-4-phenethyl-1H-1,2,4-triazol-5(4H)-one], the IC50 was in the range of 5 to 50 nM.

In turn, `COc1cc(-n2nc(C)n(Cc3ccccc3F)c2=O)ccc1-c1cn[nH]c1` [Example 95, 4-(2-fluorobenzyl)-1-(3-methoxy-4-(1H-pyrazol-4-yl)phenyl)-3-methyl-1H-1,2,4-triazol-5(4H)-one] gave a concentration for half-maximal inhibition (IC50) of 5 to 50 nM.

With `Cc1nn(-c2ccc(-c3cn[nH]c3)cc2)c(=O)n1Cc1cc(F)cc(F)c1` [Example 96, 1-(4-(1H-pyrazol-4-yl)phenyl)-4-(3,5-difluorobenzyl)-3-methyl-1H-1,2,4-triazol-5(4H)-one], the IC50 lay in the range of 5 to 50 nM.

Consider `COc1cc(-n2nc(C)n(Cc3cccc(C#N)c3)c2=O)ccc1-c1cn[nH]c1` [Example 97, 3-((1-(3-methoxy-4-(1H-pyrazol-4-yl)phenyl)-3-methyl-5-oxo-1H-1,2,4-triazol-4(5H)-yl)methyl)benzonitrile], for which the IC50 was 50 to 250 nM.

`COc1cc(-n2nc(C)n(Cc3c(F)cccc3F)c2=O)ccc1-c1cn[nH]c1` [Example 98, 4-(2,6-difluorobenzyl)-1-(3-methoxy-4-(1H-pyrazol-4-yl)phenyl)-3-methyl-1H-1,2,4-triazol-5(4H)-one] gave an IC50 of 5 to 50 nM.

Consider `COc1cc(-n2nc(C)n(Cc3cc(F)cc(F)c3)c2=O)ccc1-c1cn[nH]c1` [Example 99, 4-(3,5-difluorobenzyl)-1-(3-methoxy-4-(1H-pyrazol-4-yl)phenyl)-3-methyl-1H-1,2,4-triazol-5(4H)-one], for which the IC50 is 5 to 50 nM.

For `COc1cc(-n2nc(C)n(Cc3cccc(OC(F)F)c3)c2=O)ccc1-c1cn[nH]c1` [Example 100, 4-(3-(difluoromethoxy)benzyl)-1-(3-methoxy-4-(1H-pyrazol-4-yl)phenyl)-3-methyl-1H-1,2,4-triazol-5(4H)-one], the IC50 lay within 5 to 50 nM.

In turn, `COc1cc(-n2nc(C)n(Cc3ccc(F)cc3)c2=O)ccc1-c1cn[nH]c1` [Example 101, 4-(4-fluorobenzyl)-1-(3-methoxy-4-(1H-pyrazol-4-yl)phenyl)-3-methyl-1H-1,2,4-triazol-5(4H)-one] registered an IC50 of 5 to 50 nM.

`Cc1nn(-c2ccc(-c3cn[nH]c3)cc2)c(=O)n1Cc1cccc(OC(F)F)c1` [Example 102, 1-(4-(1H-pyrazol-4-yl)phenyl)-4-(3-(difluoromethoxy)benzyl)-3-methyl-1H-1,2,4-triazol-5(4H)-one]: the concentration for half-maximal inhibition (IC50) lay in the range of 50 to 250 nM.

`Cc1nn(-c2ccc(-c3cn[nH]c3)cc2)c(=O)n1Cc1cccc(C#N)c1` [Example 103, 3-((1-(4-(1H-pyrazol-4-yl)phenyl)-3-methyl-5-oxo-1H-1,2,4-triazol-4(5H)-yl)methyl)benzonitrile] registered an IC50 of 250 to 2000 nM.
